#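 Interpolation was linear, between the two tested concentrations surrounding the appropriate level; five concentrations were tested over 48 hours in 96-well plates. GI50 marks 50% less growth. Definition used: TGI = concentration required for complete inhibition of growth.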 Where a SMILES comes first, the peptide text is derived from it. The star is where a group is joined. Ethyl(2-NMe3+) = C[N+](C)(C)CC*; Boc = CC(C)(C)OC(=O)*
# How the values were obtained:
# Assay in all cases: inhibition of tumour cell growth, NCI panel, 48 h
# HS 578T breast = tested on: HS 578T breast
# MOLT-4 leukemia = tested on: MOLT-4 leukemia
# DU-145 prostate = tested on: DU-145 prostate
# BT-549 breast = tested on: BT-549 breast
# NCI-H226 lung = tested on: NCI-H226 lung
# OVCAR-5 ovarian = tested on: OVCAR-5 ovarian
# TK-10 renal = tested on: TK-10 renal
# SK-MEL-5 melanoma = tested on: SK-MEL-5 melanoma
SMILES,TGI (HS 578T breast),TGI (MOLT-4 leukemia),TGI (DU-145 prostate),TGI (BT-549 breast),TGI (NCI-H226 lung),TGI (OVCAR-5 ovarian),TGI (TK-10 renal),TGI (SK-MEL-5 melanoma),GI50 (MOLT-4 leukemia),GI50 (NCI-H226 lung)
CCOc1cc2c(cc1O)CC[C@@H]1[C@@H]2CC[C@]2(C)C(N)CC[C@@H]12 (stereo partly specified),23.2 µM,24.7 µM,7.08 µM,30.8 µM,10.4 µM,36.9 µM,15 µM,16.7 µM,,
CC1OC(OC2C(OC(=O)[C@@H]3CC(C)(C)C[C@@H]4C5=CC[C@@H]6[C@@]7(C)C[C@H](O)[C@H](OC8OC(CO)C(O)C(O)C8O)[C@@](C)(CO)C7[C@H](O)C[C@@]6(C)[C@]5(C)C[C@@H](O)[C@H]43)OCC(O)C2O)C(O)C(O)C1O (stereo partly specified),> 15 µM,> 15 µM,> 15 µM,> 15 µM,> 15 µM,> 15 µM,> 15 µM,> 15 µM,,
COc1ccc2c(c1)-c1[nH]c3ccc(OC)cc3c1CC2,28 µM,54.4 µM,32.9 µM,32.9 µM,24.3 µM,28.6 µM,31.5 µM,30.9 µM,,
COc1ccc(C2=NN(C(N)=S)C(c3ccccc3)C2)cc1 (stereo unspecified),> 100 µM,> 100 µM,> 100 µM,> 100 µM,> 100 µM,> 100 µM,> 100 µM,32.3 µM,,
CN(C)CCCNc1c(C#N)[n+]([O-])c2cc(Cl)ccc2[n+]1[O-],> 100 µM,20.2 µM,> 100 µM,31.1 µM,48.5 µM,> 100 µM,> 39.9 µM,10.9 µM,,
CC1=C(C)C1[N+](=O)[O-],> 100 µM,> 100 µM,> 100 µM,> 100 µM,> 100 µM,> 100 µM,> 100 µM,> 100 µM,,
COc1cc(/C=C2\C(=O)N(c3ccccc3Cl)C(c3ccccc3)S2(=O)=O)cc(OC)c1OC (stereo unspecified),> 100 µM,36.4 µM,> 100 µM,> 100 µM,> 100 µM,> 100 µM,> 100 µM,45.5 µM,,
CC(NC(=O)C(Cc1ccc(OCC[N+](C)(C)C)cc1)NC(=O)OC(C)(C)C)C(=O)NC(Cc1ccccc1)C(=O)NCC(N)=O (stereo unspecified) (Boc-Y(Ethyl(2-NMe3+))AFG-NH2; configuration not given here),83 µM,> 100 µM,> 100 µM,45.8 µM,59 µM,59.5 µM,24 µM,> 100 µM,,
Cc1ccc(C(=O)Nc2ccc(CP(=O)(O)O)cc2CP(=O)(O)O)cc1NC(=O)c1cccc(NC(=O)Nc2cccc(C(=O)Nc3cc(C(=O)Nc4ccc(CP(=O)(O)O)cc4CP(=O)(O)O)ccc3C)c2)c1,> 100 µM,> 100 µM,> 100 µM,> 100 µM,> 100 µM,> 100 µM,> 100 µM,> 100 µM,,
CC(C)(C)OC(=O)NC(CCC(=O)OCc1ccccc1)C(=O)NCCCO (stereo unspecified),> 100 µM,> 100 µM,> 100 µM,> 100 µM,> 100 µM,> 100 µM,> 100 µM,> 100 µM,,
O=C(c1ccccc1)N1OCCC1Nc1ccc(Br)cc1 (stereo unspecified),> 10 µM,> 10 µM,> 10 µM,> 10 µM,> 10 µM,> 10 µM,> 10 µM,> 10 µM,,
C=CCc1ccccc1CC1(OCC)OC(=O)c2ccccc21 (stereo unspecified),> 100 µM,> 100 µM,> 100 µM,> 100 µM,> 100 µM,> 100 µM,> 100 µM,> 100 µM,,
CC1=C(C(=O)N(C(C)C)C(C)C)CC(C(=O)N(C(C)C)C(C)C)=C(C)N1,> 100 µM,> 100 µM,> 100 µM,> 100 µM,> 100 µM,> 100 µM,> 100 µM,> 100 µM,,
CCN(CC)c1c(-c2c(N(CC)CC)c(OC(C)=O)c3sccn3c2=O)c(=O)n2ccsc2c1OC(C)=O,> 100 µM,> 100 µM,> 100 µM,> 100 µM,> 100 µM,> 100 µM,> 100 µM,> 100 µM,,
Cc1ccc(C)n1-c1ccccc1C1C=CN(C(=O)OC(C)(C)C)C=C1,> 100 µM,68.7 µM,> 100 µM,> 100 µM,31.5 µM,> 100 µM,> 100 µM,> 100 µM,,
CC(C)(C)OC(=O)N1CCC2(C)CC(=O)CC=C12 (stereo unspecified),> 100 µM,> 100 µM,> 100 µM,> 100 µM,> 100 µM,> 100 µM,> 100 µM,> 100 µM,,
Cc1c(F)c(N)c2c(=O)cc(-c3ccc(N)c(F)c3)oc2c1F,> 95 µM,> 100 µM,> 100 µM,36.8 µM,36 µM,15.8 µM,6.72 µM,67 µM,,
CC(=O)c1cccc(Nc2nc3ccc(Cl)cc3c3[nH]c4ccccc4c23)c1,66.4 µM,> 100 µM,26.8 µM,> 100 µM,67.1 µM,61.6 µM,25.8 µM,17 µM,6.41 µM,10.4 µM

# Reference: PubChem BioAssay (NCI)
